Literature values in patent US12029723B2, “Compounds and forms of treatment for female sexual disorders” (GTO PHARMA, LLC., priority 2015, dated 2024).

Key:
[1] = system: pre-menopausal women with SIAD related disorders
[2] = system: liver; conditions: a person taking 400 mg daily in herbal substitutes for weight loss

## O=c1[nH]c2ccccc2n1CCN1CCN(c2cccc(C(F)(F)F)c2)CC1 [Flibanserin, 2H-benzimidazol-2-one, 1,3-dihydro-1-[2-[4-[3(tri-fluoromethyl)phenyl]-1-piperazinyl]ethyl]]
[1]; 100 mg daily for a minimum of 28 days
  share of women with the benefit: 18%
[1]; in vivo
  effect on GPPD (vestibulodynia, dyspareunia) or FOD: no therapeutic effect at all
[1]; median baseline about 2-3 SSEs per month, six month period
  median placebo-corrected increase in satisfying sexual events (SSEs): 0.5-1.0 SSEs per month
[1]; vs 9.4% placebo
  sedation or hypotension-related adverse events: 28.6%

## Epigallocatechin-3-gallate [EGCG]
[2]
  liver injury: acute but reversible liver failure
